The values below come from publication PMC8044178, “Structural basis of norepinephrine recognition and transport inhibition in neurotransmitter transporters” (Nature Communications, 2021).

Where “and” joins values, the source holds several entries; their conditions need not be identical. Equal values may be shown once. Read-outs that look alike come from different tables or passages of the source.

Assay [1] deals with T1, dDATfc (Drosophila melanogaster dopamine transporter functional construct) (Drosophila melanogaster, UniProt Q7K4Y6, DEL164-191/F471L/L415A/V74A).
T1 construct: expressed in transfected cells; host or cells: HEK293S GnTI- cells, transient transfection with pEG-BacMam plasmid
Kind of assay: cell-based. The following applies: for inhibition at 10 µM: Log[compound] M = -5. As to the method:
(§1) Additional mutations in the subsite B or subsite C were incorporated into this gene used for carrying out the uptake assays.
(§2) Cells were transiently transfected with pEG-BacMam plasmid harboring the dDAT cGFP gene and incubated for 35–40 hrs at 37 °C with 5% CO2 and 80% humidity. […] The transport activity was arrested with 0.5 ml of pre-chilled assay buffer containing 100 μM desipramine (Sigma Aldrich) added to each reaction. The cells were then washed twice with the same buffer before solubilizing them in 0.1 ml of 20 mM DDM for one hour at room temperature. […] Following this, 0.1 ml of the supernatant was added to 0.5 ml of scintillation fluid (Ultima Gold, Perkin Elmer) and the radioactivity was estimated on MicroBeta scintillation counter (Perkin Elmer). […] The background-subtracted, dose–response plots were analyzed using GraphPad Prism v.5.0.1 and Ki values were determined from Cheng–Prusoff’s equation using the IC50 values obtained from the experiments.

The test system of assay [2] is hDAT. The settings on record: read-out: KM of transport by hDAT; cited from earlier work.
The test system of assay [3] is hNET. The following applies: read-out: KM of transport by hNET; cited from earlier work.
The target of another assay is T2, dDATNET (Drosophila melanogaster, UniProt Q7K4Y6, D121G/DEL162-202/F471L/L415A/S426M/V74A).
T2 construct: GFP-8x-His (C); made in house; host or cells: HEK293S GnTI- cells, BacMam baculovirus transduction
Put plainly: biochemical. Format: binding. As to the method:
(§3) Binding assays were performed with 20 nM of purified dDAT protein by scintillation proximity assay. For determining nisoxetine Kd, [^3H] Nisoxetine (Perkin Elmer) (in 1:5 molar ratio) was used in the range of 0.1 nM to 500 nM with 100 µM desipramine added to the control samples. Competition assays were done with 50 nM [^3H] […] The assays were done in 1 mM DDM, 0.2 mM CHS, 20 mM Tris-Cl (pH 8), 300 mM NaCl and 5% glycerol. The background values were subtracted to plot the final curves in GraphPad prism v5.0.1 and the Kd values were calculated. The IC50 values obtained from binding competition assays were used to deduce the Ki values by Cheng–Prusoff’s equation.

Assay [4] has as its target hDAT. On the set-up: method as in earlier work. The following applies: vs. RTI-55; ref 4 (Supplementary: Vaishnavi et al., 2004); read-out: Binding Inhibition (Ki), hDAT; cited from earlier work.
A further assay has as its target T3, dDATmfc (Drosophila melanogaster, UniProt Q7K4Y6, DEL162-202/F471L/L415A/V74A).
T3 construct: GFP-8x-His (C); made in house; host or cells: HEK293S GnTI- cells, BacMam baculovirus transduction
Put plainly: biochemical. The following applies: read-out: Percent binding. As for the experimental part: as §3

Assay [5] has as its target hDAT. The settings on record: read-out: Uptake Inhibition Ki, hDAT; ref 3 (Supplementary: Bymaster et al., 2003); cited from earlier work.
A further assay concerns the target T4, dDATfc A117S/A428S (Drosophila melanogaster, UniProt Q7K4Y6, A117S/A428S/DEL164-191/F471L/L415A/V74A).
T4 construct: expressed in transfected cells; host or cells: HEK293S GnTI- cells, transient transfection with pEG-BacMam plasmid
Kind of assay: cell-based. Format: cell-based. As for the experimental part: (§4) Earlier studies have posited that non-conserved residues in the primary binding site are responsible for selective inhibition of biogenic amine uptake[57],[58]. […] Effects of these mutations were analyzed through uptake inhibition using the three SNRIs employed in this study (Fig. 6a–c). […] Supplementary Table 2)[56],[59].
as §1, §2

The target in another assay is T5, dDATfc A117S (Drosophila melanogaster, UniProt Q7K4Y6, A117S/DEL164-191/F471L/L415A/V74A).
T5 construct: expressed in transfected cells; host or cells: HEK293S GnTI- cells, transient transfection with pEG-BacMam plasmid
Kind of assay: cell-based. As to the method:
as §4, §1, §2

The next assay concerns the target T6, dDATfc A428S (Drosophila melanogaster, UniProt Q7K4Y6, A428S/DEL164-191/F471L/L415A/V74A).
T6 construct: expressed in transfected cells; host or cells: HEK293S GnTI- cells, transient transfection with pEG-BacMam plasmid
Kind of assay: cell-based. As to the method: as §4, §1, §2

The subject of assay [6] is hNET. The following applies: cited from earlier work.
The mark [7] stands for this setting: HEK293S, 0.5 h, read-out: Percent inhibition of DA uptake, dDATfc, single replicates.
Setting [8] is: HEK293S, 0.5 h, read-out: Percent inhibition of DA uptake.
Setting [9] is: 0.5 h, read-out: Percent inhibition of DA uptake.

`NCCc1ccc(O)c(O)c1` [DA, dopamine]: the inhibition (in general, the relative decrease from the control value, in per cent) at 30 µM in [1] (HEK293S, 0.5 h, read-out: Percent inhibition of DA uptake, dDATfc, Log[compound] M = -4.52288, single replicates) worked out at 8.62%. In addition, in assay [1] (setting [7]), the inhibition at 10 µM was 20%. Besides, in assay [1] (HEK293S, 0.5 h, read-out: Percent inhibition of DA uptake, dDATfc, Log[compound] M = -5.52288, single replicates), the inhibition at 3 µM was 56.5%. Moreover, the inhibition at 0.1 µM in assay [1] (HEK293S, 0.5 h, read-out: Percent inhibition of DA uptake, dDATfc, Log[compound] M = -7, single replicates) amounted to 91.1%. Besides, the inhibition at 0.03 µM in assay [1] (HEK293S, 0.5 h, read-out: Percent inhibition of DA uptake, dDATfc, Log[compound] M = -7.52288, single replicates) was determined as 92.7%. The Km (usually the concentration of substrate that gives half-maximal velocity) was 2.54 µM with hDAT [2] and 0.67 µM with hNET [3].
Consider `CNCC[C@H](Oc1cccc2ccccc12)c1cccs1` [Dulox], for which, on dDATNET (read-out: Percent binding), the remaining activity at 0.03 µM came out at 86.3%, the remaining activity at 0.1 µM stood at 57.8%, the remaining activity at 0.3 µM is 34.1% and the remaining activity at 1 µM was 18.4%.
For the compound `NCC(O)c1ccc(O)c(O)c1` [NE, L-norepinephrine], the inhibition at 3000 µM in assay [1] (HEK293S, 0.5 h, read-out: Percent inhibition of DA uptake, dDATfc, Log[compound] M = -2.52288, single replicates) is 2.69%. Also, the inhibition at 100 µM in [1] (HEK293S, 0.5 h, read-out: Percent inhibition of DA uptake, dDATfc, Log[compound] M = -4, single replicates) turned out to be 29.3%. In [1] (setting [7]), the inhibition at 10 µM turned out to be 64.5%. For the same compound, in assay [1] (HEK293S, 0.5 h, read-out: Percent inhibition of DA uptake, dDATfc, Log[compound] M = -6, single replicates), the inhibition at 1 µM amounted to 92.2%. Also, the inhibition constant (Ki) (commonly the dissociation constant of the complex between target and ligand, obtained from inhibition or displacement) in [1] (Ki, inhibition of [3H] dopamine uptake) is 19.1 µM and 19 µM. Besides, the Km in the assay with hDAT [2] was 20 µM; in the assay on hNET [3], 2.6 µM.
Take `CNCC[C@H](Oc1cccc2ccccc12)c1cccs1` [S-duloxetine]: the figures for the inhibition constant Ki on hDAT [4] and on hDAT [5] were 0.23 ± 0.017 µM and 0.37 µM, respectively. For the same compound, the remaining activity at 0.003 µM at dDATmfc was found to be 86.1%. For the same compound, the remaining activity at 0.1 µM on dDATmfc worked out at 22.9%. The inhibition at 0.001 µM in assay [1] (setting [8]) was 96.4%; on dDATfc A117S/A428S (0.5 h, read-out: Percent inhibition of DA uptake, A117S_A428S, Log[compound] M = -9, single replicates), 97.8%. The inhibition at 0.003 µM in [1] (setting [8]) was determined as 88.9%. Further, the inhibition at 0.01 µM in assay [1] (setting [8]) is 85.9%. Moreover, the inhibition at 0.03 µM was 77.7% in assay [1] (setting [8]), 96.1% at dDATfc A117S (setting [9]) and 94.4% on dDATfc A428S (setting [9]). The inhibition at 0.1 µM in [1] (setting [8]) was 45%; on dDATfc A117S/A428S (0.5 h, read-out: Percent inhibition of DA uptake, A117S_A428S, Log[compound] M = -7, single replicates), 76.7%; on dDATfc A428S (setting [9]) it was 80.2%. Besides, the inhibition at 0.3 µM in [1] (setting [8]) worked out at 21.9%; on dDATfc A117S/A428S (0.5 h, read-out: Percent inhibition of DA uptake, A117S_A428S, Log[compound] M = -6.52288, single replicates), 44%; on dDATfc A428S (setting [9]), 45.5%. Also, the inhibition at 1 µM at dDATfc A117S/A428S (0.5 h, read-out: Percent inhibition of DA uptake, A117S_A428S, Log[compound] M = -6, single replicates) was determined as 11.2%; at dDATfc A428S (setting [9]), 9.62%. Further, the “increase in IC50 values, combination of A428S and A117S” value at dDATfc A117S/A428S (double mutant vs dDATfc) is recorded as ~ 3 fold.
For the compound `COc1cccc(C2(O)CCCCC2CN(C)C)c1` (stereo not shown) [Tramadol, tramadol], the Ki at dDATNET (Binding Ki with dDATNET (vs. Nisoxetine)) is 5.31 µM and 5.3 µM; in [1], 15.9 ± 1.8 µM. The remaining activity at 100 µM turned out to be 43.3% at dDATNET (DAT NET, Log Tramadol (M) -4, replicate values, read-out: Percent binding) and 23.9% at dDATmfc (DATmfc, Log Tramadol (M) -4, replicate values). The remaining activity at 30 µM at dDATNET (read-out: Percent binding) came to 60%; at dDATmfc, 44%. Also, the remaining activity at 300 µM on dDATNET (read-out: Percent binding) was determined as 17.9%. In addition, the remaining activity at 3000 µM at dDATNET (read-out: Percent binding) turned out to be 4.79%. On dDATmfc (DATmfc, Log Tramadol (M) -3, replicate values), the remaining activity at 1000 µM amounted to 6.84%. For the same compound, the remaining activity at 10 µM on dDATmfc (DATmfc, Log Tramadol (M) -5, replicate values) was found to be 74.2%. The remaining activity at 1 µM on dDATmfc (DATmfc, Log Tramadol (M) -6, replicate values) was found to be 91.4%. For the same compound, on dDATmfc, the remaining activity at 3 µM turned out to be 91%. In addition, the IC50 – broadly, the midpoint of a concentration-inhibition curve – came to 24.7 ± 2.8 µM in assay [1], 130 ± 12.2 µM against dDATfc A117S/A428S, 35.8 ± 2.2 µM at dDATfc A117S and 50.5 ± 5.4 µM at dDATfc A428S. Also, the inhibition at 30 µM in assay [1] (setting [8]) was found to be 38.5%; at dDATfc A117S (setting [9]) it was 61.3%. Besides, the inhibition at 100 µM on dDATfc A117S/A428S (0.5 h, read-out: Percent inhibition of DA uptake, A117S_A428S, Log[compound] M = -4, single replicates) is 48.1%; on dDATfc A117S (0.5 h, A117S, Log[compound] M = -4, single replicates, read-out: Percent inhibition of DA uptake), 29.4%; on dDATfc A428S (0.5 h, A428S, Log[compound] M = -4, single replicates, read-out: Percent inhibition of DA uptake), 32.2%. In addition, the inhibition at 1 µM amounted to 105% on dDATfc A117S (0.5 h, A117S, Log[compound] M = -6, single replicates, read-out: Percent inhibition of DA uptake) and 92.4% at dDATfc A428S (0.5 h, A428S, Log[compound] M = -6, single replicates, read-out: Percent inhibition of DA uptake). On dDATfc A117S (setting [9]), the inhibition at 3 µM was found to be 105%. In addition, the inhibition at 300 µM at dDATfc A117S (setting [9]) is 13.1%; at dDATfc A428S (setting [9]), 11.6%. Further, the inhibition at 3000 µM on dDATfc A117S (setting [9]) was determined as 3.78%. Also, the “greater affinity to NET over DAT” value in the assay on hNET [6] (NET over DAT) is ~ 50 fold.
Take `CN(C)C[C@H]1CCCC[C@]1(O)c1cccc(O)c1` [desmetramadol, O-desmethyl tramadol]: the concentration for half-maximal inhibition (IC50) in the assay on hNET [6] (read-out: IC50, inhibition of hNET) is 6 µM.
